Source: ChEMBL document CHEMBL5506005, “Biochemical and structural characterization of chlorhexidine as an ATP-assisted inhibitor against type 1 methionyl-tRNA synthetase from Gram-positive bacteria” (Eur J Med Chem, 2024)

Legend:
Methionine--tRNA ligase [1] = biological target: T1, Methionine--tRNA ligase (Staphylococcus aureus (strain Mu50 / ATCC 700699), UniProt P67578); assay: Binding affinity to Staphylococcus aureus MetRS expressed in Escherichia coli BL21(DE3) cells assessed as dissociation constant in presence of 500 uM ATP by ITC analysis
Methionine--tRNA ligase [2] = biological target: T1, Methionine--tRNA ligase; assay: Binding affinity to Staphylococcus aureus MetRS expressed in Escherichia coli BL21(DE3) cells assessed as dissociation constant by ITC analysis
Methionine--tRNA ligase [3] = biological target: T2, Methionine--tRNA ligase (Enterococcus faecalis, UniProt A0A3N3ZFK4); assay: Inhibition of Enterococcus faecalis type 1 MetRS expressed in Escherichia coli BL21(DE3) cells measured after 1.5 hrs in presence of ATP by pre-transfer editing assay
Methionine--tRNA ligase [4] = biological target: T1, Methionine--tRNA ligase; assay: Binding affinity to Staphylococcus aureus MetRS expressed in Escherichia coli BL21(DE3) cells assessed as dissociation constant in presence of 1 mM ADP by ITC analysis
Methionine--tRNA ligase [5] = biological target: T2, Methionine--tRNA ligase; assay: Binding affinity to Enterococcus faecalis type 1 MetRS expressed in Escherichia coli BL21(DE3) cells assessed as dissociation constant in presence of 1 mM ATP by ITC analysis
Methionine--tRNA ligase [6] = biological target: T1, Methionine--tRNA ligase; assay: Binding affinity to Staphylococcus aureus MetRS expressed in Escherichia coli BL21(DE3) cells assessed as dissociation constant in presence of 20 uM ATP by ITC analysis
Methionine--tRNA ligase [7] = biological target: T1, Methionine--tRNA ligase; assay: Inhibition of Staphylococcus aureus MetRS expressed in Escherichia coli BL21(DE3) cells measured after 2.5 hrs in presence of ATP by pre-transfer editing assay
Methionine--tRNA ligase [8] = biological target: T1, Methionine--tRNA ligase; assay: Binding affinity to Staphylococcus aureus MetRS expressed in Escherichia coli BL21(DE3) cells assessed as dissociation constant in presence of ATP/L-Met by ITC analysis
Methionine--tRNA ligase [9] = biological target: T1, Methionine--tRNA ligase; assay: Binding affinity to Staphylococcus aureus MetRS expressed in Escherichia coli BL21(DE3) cells assessed as dissociation constant in presence of 1 mM AMP by ITC analysis
Methionine--tRNA ligase [10] = biological target: T1, Methionine--tRNA ligase; assay: Binding affinity to Staphylococcus aureus MetRS expressed in Escherichia coli BL21(DE3) cells assessed as dissociation constant in presence of 1 mM ATP by ITC analysis
Methionine--tRNA ligase [11] = biological target: T1, Methionine--tRNA ligase; assay: Binding affinity to Staphylococcus aureus MetRS expressed in Escherichia coli BL21(DE3) cells assessed as dissociation constant in presence of 50 uM ATP by ITC analysis
Methionine--tRNA ligase [12] = biological target: T2, Methionine--tRNA ligase; assay: Binding affinity to Enterococcus faecalis type 1 MetRS expressed in Escherichia coli BL21(DE3) cells assessed as dissociation constant by ITC analysis

T2 sequence (A0A3N3ZFK4 whole entry): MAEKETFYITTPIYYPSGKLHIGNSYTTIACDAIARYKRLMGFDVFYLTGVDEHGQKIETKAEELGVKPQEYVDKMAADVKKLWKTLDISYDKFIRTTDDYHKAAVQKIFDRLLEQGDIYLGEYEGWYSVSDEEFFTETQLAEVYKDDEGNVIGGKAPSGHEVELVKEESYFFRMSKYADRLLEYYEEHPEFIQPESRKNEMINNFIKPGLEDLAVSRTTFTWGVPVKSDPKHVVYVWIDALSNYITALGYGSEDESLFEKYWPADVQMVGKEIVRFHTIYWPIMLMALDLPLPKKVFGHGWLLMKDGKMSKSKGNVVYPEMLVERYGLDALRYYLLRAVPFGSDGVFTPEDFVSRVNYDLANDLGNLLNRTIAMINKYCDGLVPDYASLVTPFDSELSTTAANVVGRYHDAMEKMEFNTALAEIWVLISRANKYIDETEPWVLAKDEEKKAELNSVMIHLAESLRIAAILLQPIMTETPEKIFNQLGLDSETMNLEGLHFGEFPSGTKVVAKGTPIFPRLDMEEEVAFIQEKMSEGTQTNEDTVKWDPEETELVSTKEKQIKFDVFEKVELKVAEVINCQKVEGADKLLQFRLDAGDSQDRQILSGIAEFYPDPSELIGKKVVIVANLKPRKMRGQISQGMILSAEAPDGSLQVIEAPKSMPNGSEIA

Kd (Methionine--tRNA ligase [1]): 0.593 µM | Kd (Methionine--tRNA ligase [2]): 10.2 µM | IC50 (Methionine--tRNA ligase [3]): 8.5 µM | Kd (Methionine--tRNA ligase [4]): 1.9 µM | Kd (Methionine--tRNA ligase [5]): 0.3 µM | Kd (Methionine--tRNA ligase [6]): 3.1 µM | IC50 (Methionine--tRNA ligase [7]): 30.8 µM | Kd (Methionine--tRNA ligase [8]): 4.19 µM | Kd (Methionine--tRNA ligase [9]): 0.006 µM | Kd (Methionine--tRNA ligase [10]): 0.45 µM | Kd (Methionine--tRNA ligase [11]): 1.21 µM | Kd (Methionine--tRNA ligase [12]): 5.04 µM
Compound: [H]/N=C(\N/C(=N/[H])NCCCCCCNC(=N)NC(=N)Nc1ccc(Cl)cc1)Nc1ccc(Cl)cc1 [CHLORHEXIDINE]
